# Procedure: [drawing 8] was dissolved in alloocimene.
# Examples 1 and 2 were repeated except that dodecane was used as a solvent in place of alloocimene or farnesenes.
# [drawing 9] is dissolved in mixed isomers of farnesene.
# [drawing 10] is dissolved in mixed isomers of farnesenes.
# [drawing 11] is dissolved in mixed isomers of farnesenes.
# [drawing 12] is dissolved in alloocimene.
# [drawing 13] is dissolved in mixed isomers of farnesene.
row,solubility (in words),Substance
1,high,"bis(N,N′-diisopropylacetamidinato)cobalt(II)"
2,high,"bis(N,N′-diisopropylpentamidinato)manganese(II)"
3,high,"copper(I) (N,N′-di-sec-butylacetamidinate)"
4,high,"tris(N,N′-diisopropylacetamidinato)yttrium(III)"
5,high,"tris(N,N′-diisopropylformamidinato)lanthanum(III)"

# Source: patent US9790378B2, “Vapor source using solutions of precursors in terpenes” (President and Fellows of Harvard College, priority 2010, dated 2017)
